The source of these data is ChEMBL document CHEMBL1147574, “Synthesis of a novel peptidic photoaffinity probe for the PTP-1B enzyme” (Bioorg Med Chem Lett, 2004).

The nature of assay [1]: Percent adduct formed by co-valent binding to the enzyme was assessed by irradiating a solution of the photoprobe and the PTP1B enzyme with a 40W lamp.
Assay [2] is described as follows: Inhibitory activity of compound against phosphotyrosine phosphatase-1B.

Bounds are passed on as bounds.

The IC50 is the midpoint of a concentration-inhibition curve. A high value points to weaker potency in that assay. Take `NC(=O)[C@H](Cc1ccc(C(F)(F)P(=O)(O)O)c(Br)c1)NC(=O)[C@H](Cc1ccc(C(F)(F)P(=O)(O)O)c(Br)c1)NC(=O)c1cc(Br)cc(C2(C(F)(F)F)N=N2)c1`: the Adduct formation in assay [1] worked out at 6%. Moreover, the concentration for half-maximal inhibition (IC50) in assay [2] amounted to 0.3 nM.
Consider `NC(=O)[C@H](Cc1ccc(C(F)(F)P(=O)(O)O)cc1)NC(=O)c1cc(Br)cc(C2(C(F)(F)F)N=N2)c1`, for which, in assay [2], the midpoint of inhibition, the IC50, lay at 9500 nM.
Regarding `NC(=O)[C@H](Cc1ccc(C(F)(F)P(=O)(O)O)cc1)NC(=O)[C@H](Cc1ccc(C(F)(F)P(=O)(O)O)cc1)NC(=O)[C@H](CCC(=O)O)NCc1cc(Br)cc(C2(C(F)(F)F)N=N2)c1`, the Adduct formation in assay [1] came out at 5%. Half-maximal inhibition in assay [2] (IC50) was put at 3 nM.
On the same counts, the results for `NC(=O)[C@H](Cc1ccc(C(F)(F)P(=O)(O)O)cc1)NC(=O)[C@H](Cc1ccc(C(F)(F)P(=O)(O)O)cc1)NC(=O)[C@H](CCC(=O)O)NC(=O)c1cc(Br)cc(C2(C(F)(F)F)N=N2)c1` are 8% and 14 nM.
On the same counts, the results for `NC(=O)[C@H](Cc1ccc(C(F)(F)P(=O)(O)O)cc1)NC(=O)[C@H](Cc1ccc(C(F)(F)P(=O)(O)O)cc1)NC(=O)c1cc(I)cc(C2(C(F)(F)F)N=N2)c1` are 8% and 9 nM.
On the same counts, the results for `NC(=O)[C@H](Cc1ccc(C(F)(F)P(=O)(O)O)cc1)NC(=O)[C@H](Cc1cc(Br)cc(C2(C(F)(F)F)N=N2)c1)NC(=O)c1cc(Br)cc(C2(C(F)(F)F)N=N2)c1` are under 5% and 15 nM.
As to `NC(=O)[C@H](Cc1ccc(C(F)(F)P(=O)(O)O)cc1)NC(=O)[C@H](Cc1ccc(C(F)(F)P(=O)(O)O)cc1)NCc1cc(Br)cc(C2(C(F)(F)F)N=N2)c1`, the half-maximal inhibitory concentration (IC50) in assay [2] came out at 1700 nM.
Regarding `NC(=O)[C@H](Cc1ccc(C(F)(F)P(=O)(O)O)c(Br)c1)NC(=O)[C@H](Cc1ccc(C(F)(F)P(=O)(O)O)c(Br)c1)NC(=O)c1cc(I)cc(C2(C(F)(F)F)N=N2)c1`, the Adduct formation in assay [1] is 8%. For the same molecule, the concentration for half-maximal inhibition (IC50) in assay [2] worked out at 4 nM.
Take `NC(=O)[C@H](Cc1ccc(C(F)(F)P(=O)(O)O)cc1)NC(=O)[C@H](Cc1ccc(C(F)(F)P(=O)(O)O)cc1)NC(=O)c1cc(Br)cc(C2(C(F)(F)F)N=N2)c1`: in assay [2], the IC50 came to 12 nM.
